In series [1] the test system is human colon cancer cell line HCT-8. The series can be described thus: WST-8 (CCK-8) in vitro cytotoxicity test, HCT-8. Format: cell-based. The conditions noted are these: read-out: IC50, HCT-8. As for the experimental part:
(§1) A WST-8 colorimetric assay (Cell Counting Kit-8, Dojindo) was used to determine the cytotoxicity of the obtained compounds against four human cancer cell lines (human gastric cancer cell line SGC7901, cisplatin-resistant human gastric cancer cell line SGC7901/DDP, human colon cancer cell line HCT-8, and taxol-resistant human colon cancer cell line HCT-8/T) and noncancerous NCM460 colon cell line. Each cell line (100 μL, 5 × 10^4 cells/mL) was inoculated into standard 96-well, flat-bottom microplates, and incubated with DMEM (for HCT-8 and NCM460) or RPMI-1640 (for HCT-8/T, SGC7901, and SGC7901/DDP) medium for 24 h at 37°C in a humidified atmosphere containing 5% CO2. The attached cells were then incubated with serially diluted NATs (1-8). After continuous exposure to the compounds for 72 h, 10 μL CCK-8 solution was added. After 3 h of incubation at 37°C (5% CO2), the absorbance was measured at 450 nm using a microtiter plate reader (SpectraMax 190, Molecular Devices). Cisplatin and taxol (purity ≥ 98% Sigma, USA) were used as positive controls. All studies were performed in triplicate and the IC50 values were calculated using Prism software.
Background: Formazan colour is commonly taken as a measure of viable cells.

For series [2], the system named is taxol-resistant human colon cancer cell line HCT-8/T. The series can be described thus: WST-8 (CCK-8) in vitro cytotoxicity test, HCT-8/T. Format: cell-based. The conditions noted are these: read-out: IC50, HCT-8/T. As for the experimental part:
as §1

For series [3], the system named is human gastric cancer cell line SGC7901. The series can be described thus: WST-8 (CCK-8) in vitro cytotoxicity test, SGC7901. The series is classed as cell-based. The settings on record: read-out: IC50, SGC7901. As for the experimental part: as §1
In series [4] the test system is cisplatin-resistant human gastric cancer cell line SGC7901/DDP. The series can be described thus: WST-8 (CCK-8) in vitro cytotoxicity test, SGC7901/DDP. The series is classed as cell-based. The conditions noted are these: read-out: IC50, SGC7901/DDP. As for the experimental part:
as §1

In series [5] the test system is noncancerous NCM460 colon cell line. The series can be described thus: WST-8 (CCK-8) in vitro cytotoxicity test, NCM460. The series is classed as cell-based. The settings on record: Homo sapiens, read-out: IC50, NCM460. As for the experimental part: as §1
The test system of series [6] is SGC7901, SGC7901/DDP, HCT-8 and HCT-8/T cell lines. The series can be described thus: Cytotoxicity summarised over all four cancer cell lines. Format: cell-based, human. The settings on record: for IC50: Homo sapiens, read-out: anti-proliferative activity (IC50 span) against all four cell lines; for fold better anti-proliferative activity in drug-resistant cell lines than in sensitive ones: span over compounds 3, 4, 7, 8; for fold higher activity than corresponding oxidized forms (3 and 4): in vitro, span over four cell lines. As to the method: as §1

A further series concerns GRP78. More on the design: method as in Izumikawa et al., 2007. The settings on record: ref Izumikawa et al., 2007; cited from earlier work.
For a further series, the system named is KB cells. Set-up: method as in Takahashi et al., 2001. The conditions noted are these: ref Takahashi et al., 2001; cited from earlier work.
Another series has as its system K562 cells. Set-up: method as in Takahashi et al., 2001. The conditions noted are these: ref Takahashi et al., 2001; cited from earlier work.
Another series concerns HT-29 cell line. Set-up: method as in Li et al., 2013. The settings on record: ref Li et al., 2013; cited from earlier work.
For series [7], the system named is HCT-8 cells. The series can be described thus: Cell morphology, DAPI staining. The series is classed as cell-based, human. The conditions noted are these: 72 h. As to the method:
HCT-8 cells were seeded in 12-well plates at a density of 1 × 10^5 cells per well. After overnight adherence, they were exposed to the indicated concentration of NAT-A for 72 h. After that, the cells were washed with PBS and fixed 4% paraformaldehyde for 30 min at room temperature. After washing with PBS, the cells were stained with DAPI (100 ng/mL) for 15 min in the dark and photographed using a fluorescence microscope (Nikon, Japan).

The subject of series [8] is HCT-8 cells. The series can be described thus: Apoptosis analysis by flow cytometry (Annexin V-FITC/PI). The series is classed as cell-based, human. The conditions noted are these: NAT-A 0.5 μM, 72 h, untreated 7.2 ± 1.1%. As to the method: An Annexin V-FITC/PI Apoptosis Detection kit I (BD Pharmingen, San Diego, CA, USA) was adopted to examine the cell apoptosis according to the manufacturer's instructions. HCT-8 cells were cultured on a six-well plate (3 × 10^5 cells/well) and allowed to attach for 24 h before treated with NAT-A (0 and 0.5 μM) for 72 h. Then cells were harvested, washed with PBS and resuspended in 1 × binding buffer. Cell suspension (100 μL) was incubated with 5 μL FITC Annexin-V and 5 μL propidium iodide (PI) for 15 min in the dark. Following the incubation, 400 μL 1 × binding buffer was added into each sample before analysis using flow cytometry (Thermo Fisher Scientific, Eugene, Oregon, USA). The lower left section of fluorocytogram (Annexin V-, PI-) represents the normal cells, lower right section of fluorocytogram (Annexin V+, PI-) represents early apoptosis cells, and upper right section of fluorocytogram (Annexin V+, PI+) represents late apoptosis cells.
In general terms: A flow cytometer gives signals particle by particle.

Setting [9] is: 72 h exposure, CCK-8, mean ± SD, n = 3.
[10] abbreviates: Homo sapiens, HCT-8, 72 h exposure, CCK-8, mean ± SD, n = 3.
Setting [11] is: Homo sapiens, HCT-8, taxol-resistant, 72 h exposure, CCK-8, mean ± SD, n = 3.

Like-named read-outs stand apart in the source and are kept apart here. Where only a bound is given, the exact number is not on record here.

For the molecule `CC(C)[C@@H]1OC(=O)[C@@H](NC(=O)c2cccc(N)c2O)[C@@H](C)OC(=O)[C@H](C(C)C)OC(=O)C(C)(C)C(=O)[C@@H](Cc2ccccc2)OC1=O` [Compound 2, Neoantimycin K], the IC50 was > 20000 nM in [1] (Homo sapiens, HCT-8, 72 h); > 20000 nM in [2] (Homo sapiens, HCT-8, 72 h); > 20000 nM in [3] (Homo sapiens, SGC-7901, 72 h); > 20000 nM in series [4] (Homo sapiens, SGC-7901, 72 h).
Regarding `N.N.[Cl][Pt][Cl]` [cisplatin, reference compound], the IC50 in series [1] (setting [9]) was 9490 nM; in series [2] (taxol-resistant, 72 h exposure, CCK-8, mean ± SD, n = 3) it was > 20000 nM; in [3] (setting [9]), 2560 nM; in series [4] (cisplatin-resistant, 72 h exposure, CCK-8, mean ± SD, n = 3), 5670 nM.
As for `CC(=O)O[C@H]1C(=O)[C@@]2(C)[C@H]([C@H](OC(=O)c3ccccc3)[C@]3(O)C[C@H](OC(=O)[C@H](O)[C@@H](NC(=O)c4ccccc4)c4ccccc4)C(C)=C1C3(C)C)[C@]1(OC(C)=O)CO[C@@H]1C[C@@H]2O` [taxol, reference compound], the IC50 in series [1] (setting [10]) is 2520 nM; in series [2] (setting [11]) it was > 20000 nM.
With `CC(C)[C@@H]1OC(=O)[C@@H](NC(=O)c2cccc(NC=O)c2O)[C@@H](C)OC(=O)[C@H](C(C)C)OC(=O)C(C)(C)C(=O)[C@@H](Cc2ccccc2)OC1=O` [Compound 4, Neoantimycin I], the IC50 is 233 ± 20.1 nM in series [1] (Homo sapiens, HCT-8, 72 h); 32.6 ± 4.2 nM in series [2] (Homo sapiens, HCT-8, 72 h); > 50000 nM in [5] (NCM460, 72 h); 179 ± 18.3 nM in series [3] (Homo sapiens, SGC-7901, 72 h); 1.5 to 523 nM in series [6]; 15.7 ± 1.6 nM in [4] (Homo sapiens, SGC-7901, 72 h). For the same molecule, the “fold better anti-proliferative activity in drug-resistant cell lines than in sensitive ones” value (“fold better anti-proliferative activity” for short) in series [6] is listed as 5.2~33.5 fold.
For the molecule `CC[C@H](C)[C@@H]1OC(=O)C(C)(C)[C@@H](O)[C@@H](Cc2ccccc2)OC(=O)[C@H](C)OC(=O)[C@@H](NC(=O)c2cccc(N)c2O)[C@H](C)OC1=O` [JBIR-05], the “expression of GRP78” value in the series on GRP78 was “inhibited the expression of GRP78”.
For `CCC(C)C1OC(=O)C(C)(C)C(O)C(Cc2ccccc2)OC(=O)C(C)OC(=O)C(NC(=O)c2cccc(NC=O)c2O)C(C)OC1=O` (stereo not shown) [SW-163 A], the “cytotoxicity against KB cells” value in the series on KB cells was “no cytotoxicity”. Also, the “cytotoxicity against K562 cells” value with K562 cells was “no cytotoxicity”.
`CC[C@H](C)[C@@H]1OC(=O)C(C)(C)C(=O)[C@@H](Cc2ccccc2)OC(=O)[C@H](C(C)C)OC(=O)[C@@H](NC(=O)c2cccc(N)c2O)[C@@H](C)OC1=O` [Compound 1, Neoantimycin J]: the IC50 is > 20000 nM in series [1] (Homo sapiens, HCT-8, 72 h); > 20000 nM in [2] (Homo sapiens, HCT-8, 72 h); > 20000 nM in [3] (Homo sapiens, SGC-7901, 72 h); > 20000 nM in series [4] (Homo sapiens, SGC-7901, 72 h).
`CC(C)[C@@H]1OC(=O)[C@@H](NC(=O)c2cccc(N)c2O)[C@@H](C)OC(=O)[C@H](C(C)C)OC(=O)C(C)(C)[C@@H](O)[C@@H](Cc2ccccc2)OC1=O` [Compound 6, Neoantimycin E]: the IC50 is 13100 nM in series [1] (Homo sapiens, HCT-8, 72 h); > 20000 nM in [2] (Homo sapiens, HCT-8, 72 h); 1770 nM in [3] (Homo sapiens, SGC-7901, 72 h); > 20000 nM in series [4] (Homo sapiens, SGC-7901, 72 h). For the same molecule, in the series on HT-29 cell line, the “antiproliferative activity against HT-29 cell line” value (shortened to “antiproliferative activity”) was “hardly had any significant antiproliferative activity”.
Take `CC[C@H](C)[C@@H]1OC(=O)C(C)(C)[C@@H](O)[C@@H](Cc2ccccc2)OC(=O)[C@H](C(C)C)OC(=O)[C@@H](NC(=O)c2cccc(NC=O)c2O)[C@@H](C)OC1=O` [Compound 7, Neoantimycin A]: in the series with HCT-8 cells [7], the “nuclear morphology after DAPI staining” value is “nuclear shrinkage, DNA fragments as well as chromatin condensation”. In addition, the IC50 was 66.9 ± 5.7 nM in series [1] (setting [10]); 2 ± 0.1 nM in series [2] (setting [11]); > 50000 nM in series [5] (NCM460, noncancerous colon cell, 72 h exposure, CCK-8, mean ± SD, n = 3); 24.5 ± 3.3 nM in [3] (Homo sapiens, SGC-7901, 72 h exposure, CCK-8, mean ± SD, n = 3); 1.5 to 523 nM in series [6] (span over compounds 3, 4, 7, 8 and four cell lines); 1.5 ± 0.1 nM in series [4] (Homo sapiens, SGC-7901, cisplatin-resistant, 72 h exposure, CCK-8, mean ± SD, n = 3). Also, the “fold higher activity than corresponding oxidized forms (3 and 4)” value in series [6] is 1.2~13 fold. In addition, the “fold better anti-proliferative activity” value in series [6] was 5.2~33.5 fold. Besides, the “percentage of apoptotic cells (Annexin V/PI)” value with HCT-8 cells [8] came to 25.9 ± 0.7%.
As to `CC(C)[C@@H]1OC(=O)[C@@H](NC(=O)c2cccc(NC=O)c2O)[C@@H](C)OC(=O)[C@H](C(C)C)OC(=O)C(C)(C)[C@@H](O)[C@@H](Cc2ccccc2)OC1=O` [Compound 8, Neoantimycin F], the IC50 in [1] (Homo sapiens, HCT-8, 72 h) is 136 ± 18.2 nM; in series [2] (Homo sapiens, HCT-8, 72 h), 26.1 ± 0.1 nM; in series [5] (NCM460, 72 h) it was > 50000 nM; in series [3] (Homo sapiens, SGC-7901, 72 h) it was 98.5 ± 32.6 nM; in series [6], 1.5 to 523 nM; in [4] (Homo sapiens, SGC-7901, 72 h), 6.4 ± 0.5 nM. For the same molecule, in the series on HT-29 cell line, the “antiproliferative activity” value is “hardly had any significant antiproliferative activity”. The “fold higher activity than corresponding oxidized forms (3 and 4)” value in series [6] is reported as 1.2~13 fold. Further, the “fold better anti-proliferative activity” value in [6] is 5.2~33.5 fold.
Consider `CC[C@H](C)[C@@H]1OC(=O)C(C)(C)[C@@H](O)[C@@H](Cc2ccccc2)OC(=O)[C@H](C(C)C)OC(=O)[C@@H](NC(=O)c2cccc(N)c2O)[C@@H](C)OC1=O` [Compound 5, Neoantimycin D], for which the IC50 in series [1] (Homo sapiens, HCT-8, 72 h) is > 20000 nM; in series [2] (Homo sapiens, HCT-8, 72 h), > 20000 nM; in series [3] (Homo sapiens, SGC-7901, 72 h), 10200 nM; in series [4] (Homo sapiens, SGC-7901, 72 h) it was > 20000 nM. The “antiproliferative activity” value in the series on HT-29 cell line is recorded as “hardly had any significant antiproliferative activity”. In addition, the “cytotoxic activity (cell line not named at b4)” value in the series with HT-29 cell line is “did not show any cytotoxic activity”.
For the molecule `CC[C@H](C)[C@@H]1OC(=O)C(C)(C)C(=O)[C@@H](Cc2ccccc2)OC(=O)[C@H](C(C)C)OC(=O)[C@@H](NC(=O)c2cccc(NC=O)c2O)[C@@H](C)OC1=O` [Compound 3, Neoantimycin H], the IC50 is 523 ± 104 nM in [1] (Homo sapiens, HCT-8, 72 h); 26.6 ± 1.5 nM in [2] (Homo sapiens, HCT-8, 72 h); 115 ± 18.7 nM in series [5] (NCM460, 72 h); 104 ± 22.7 nM in series [3] (Homo sapiens, SGC-7901, 72 h); 1.5 to 523 nM in series [6]; 12.2 ± 4.6 nM in series [4] (Homo sapiens, SGC-7901, 72 h). Moreover, in [6], the “fold better anti-proliferative activity” value is given as 5.2~33.5 fold.

These data come from article PMC6624652, “Compound Discovery and Structure-Activity Relationship Study of Neoantimycins Against Drug-Resistant Cancer Cells” (Frontiers in Chemistry, 2019).
